Test results published in US7943296B2, “Methods of screening using a natriuretic peptide receptor” (Oregon Health & Science University, priority 2005, dated 2011).

Assays:
NPRA [1] = experiment: [35S]ATPγS incorporation into NPRA (receptor phosphorylation) in CFs; assay type: cell-based, rat; settings: ANP 5 minutes, KT5823 1 μM or expressed fragment
Protocol: To identify receptor phosphorylation by PKG, ^[35S]ATPγS was employed as a substrate. [^35S] incorporation into NPRA was analyzed according to the method previously described (Joubert et al., Biochem. 40:11096-105, 2001). Briefly, the treated CFs were scraped into 100 μl ice-cold incubation buffer (25 mM HEPES, pH 7.4, 50 mM NaCl, 5 mM MgCl2, 0.2 μM okadaic acid, 1 mM Na3VO4, 10 mM NaH2PO4, 10 mM NaF, and protease inhibitors (complete mini-tablet, Roche) and lysed by repeated passage through a 22-gauge needle. Lysates were added to incubation buffer containing 1 μCi [^35S]ATPγS (specific activity >1000 Ci/mmol), final volume of 200 μl, incubated at 37° C. for 30 minutes. Proteins were analyzed by SDS-PAGE (7.5%) and subsequent autoradiography.

NPRA [2] = biological target: T1, NPRA (Rattus norvegicus, UniProt P18910); experiment: Total cGMP by enzyme immunoassay in NP-treated CFs; assay type: cell-based; settings: fragment expressed alone, no ANP; 100 μM IBMX
T1 construct: endogenous in cells; host or cells: primary neonatal rat cardiac fibroblasts, transfected with insertless vector or sNRF^(806-900)
T1 sequence (P18910 29-1057): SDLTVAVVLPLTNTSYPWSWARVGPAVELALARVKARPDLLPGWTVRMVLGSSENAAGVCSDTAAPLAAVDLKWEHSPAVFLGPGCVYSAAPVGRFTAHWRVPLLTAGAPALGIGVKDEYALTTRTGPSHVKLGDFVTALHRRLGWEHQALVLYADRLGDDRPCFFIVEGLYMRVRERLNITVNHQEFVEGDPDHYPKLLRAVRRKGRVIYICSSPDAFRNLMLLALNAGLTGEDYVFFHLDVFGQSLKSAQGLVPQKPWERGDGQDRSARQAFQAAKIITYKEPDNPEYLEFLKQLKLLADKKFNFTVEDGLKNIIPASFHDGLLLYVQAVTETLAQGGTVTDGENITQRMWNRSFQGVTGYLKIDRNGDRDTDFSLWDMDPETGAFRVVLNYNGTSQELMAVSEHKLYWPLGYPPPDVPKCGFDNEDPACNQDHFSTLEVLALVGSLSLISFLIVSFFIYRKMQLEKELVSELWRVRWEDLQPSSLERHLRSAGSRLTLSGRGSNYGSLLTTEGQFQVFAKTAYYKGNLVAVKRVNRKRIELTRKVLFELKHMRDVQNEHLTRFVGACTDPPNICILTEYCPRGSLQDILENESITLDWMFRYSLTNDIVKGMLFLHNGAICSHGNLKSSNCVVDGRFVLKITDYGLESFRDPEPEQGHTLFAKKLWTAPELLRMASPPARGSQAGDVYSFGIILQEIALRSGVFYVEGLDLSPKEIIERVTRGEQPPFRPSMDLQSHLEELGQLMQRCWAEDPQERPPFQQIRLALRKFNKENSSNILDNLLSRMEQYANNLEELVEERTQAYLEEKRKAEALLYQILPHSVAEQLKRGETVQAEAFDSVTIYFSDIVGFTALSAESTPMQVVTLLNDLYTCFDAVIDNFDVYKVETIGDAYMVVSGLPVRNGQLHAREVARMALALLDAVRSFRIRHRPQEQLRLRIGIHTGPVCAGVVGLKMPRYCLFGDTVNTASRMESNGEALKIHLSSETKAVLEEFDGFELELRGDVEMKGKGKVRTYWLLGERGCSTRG
Protocol: The ability of sNRF^(806-900) to reduce or inhibit downstream effects by modulating the intrinsic guanylyl cyclase activity of NPRA, was determined by measuring total cGMP levels in NP-treated CFs. CFs were transfected with insertless vector or sNRF^(806-900) as described in Example 7 and treated with ANP (100 nM) for 15 minutes. cGMP concentration was determined by enzyme immunoassay using a commercial kit (Enzyme immunoassay Biotrak EIA System, Amersham Biosciences). In all experiments, cells were treated with 100 μM IBMX with or without ANP.

[3] = tested on: cardiac fibroblasts (CFs); experiment: bFGF-induced α-SMA protein expression in CFs (Western blot); assay type: cell-based, rat; settings: fragment expressed; 10 ng/ml FGF 48 hours; 100 nM ANP
Protocol: NP's ability to inhibit growth factor-induced CF differentiation into myofibroblasts was determined as follows. CFs were transiently transfected with insertless pcDNA3 vector or pcDNA3 encoding sNRF^(806-900) (see Example 7). The transfected CFs were then treated for 48 hours with 10 ng/ml basic fibroblast growth factor (FGF; Sigma-Aldrich #F0291) in the presence or absence of 100 nM ANP. Alpha-smooth muscle actin (α-SMA) protein expression, the principal marker of CF differentiation, was assessed by Western blotting and immunofluorescence microscopy. Vimentin staining was used as a loading control because it is expressed equally in fibroblasts and transdifferentiated myofibroblasts.

- cGMP levels (NPRA [2]): significantly increased cGMP levels
Substance: sNRF^(806-900): intracellular NPRA fragment, residues 806-900, excludes the cyclase-containing domain; shortest fragment observed to associate with PKG
- ANP-induced NPRA phosphorylation (NPRA [1]): reduced ANP-induced NPRA phosphorylation to control levels
- ANP's inhibitory effect on growth factor-induced α-SMA protein expression [3]: reversed ANP's inhibitory effect
